# Data taken from US20260042847A1, “CYSTEINE ENGINEERED ANTIBODY CONSTRUCTS, CONJUGATES AND METHODS OF USE” (ZYMEWORKS INC., priority 2021, published 2026).
# Square brackets hold non-standard residues; d marks the D form. Peptide text beside a SMILES is read from it. * marks the point of attachment. Dolaproine = CO[C@@H]([C@@H]1CCCN1)[C@@H](C)C(=O)O; Dil = CC[C@H](C)[C@H](NC)[C@@H](CC(=O)O)OC; X1 = C[C@@H](N*)[C@@H](O)c1ccccc1; NMeV = CN[C@H](C(=O)O)C(C)C
# Key:
# Format in all cases: cell-based
# [1] = tested on: BT-20 cell line (low c-Met expressing); test: In vitro cytotoxicity (CellTiter-Glo), BT-20; settings: 4 nights incubation; n = 2; IC = cytotoxicity shown but curve not optimal for accurate EC50
# Description: (§1) Cytotoxicity of the ADCs from Example 3 comprising either MCvcPABC-MMAE or MTvcCompound 1 was tested in vitro against a variety of tumor cell lines expressing the target surface antigen (c-Met) as described below. The following cell lines were used (Table 9.1).
# (§2) Each of the cell lines shown in Table 9.1 was grown in the respective complete growth medium until assay day. After removal from the culture vessels using Trypsin-EDTA, cells were counted using a Scepter™ Cell Counter (Sigma-Aldrich Canada, Oakville, ON). Cells were diluted in complete growth medium to 20,000 cells/mL, such that 50 μL/well in 384-well plates equaled 1,000 cells/well, unless otherwise specified. All ADCs were diluted to 15 nM starting concentration in complete growth medium (RPMI 1640) followed by a 1:3 dilution in sterile 96-well dilution plates (final volume 200 μL/well). Samples (20 μL/well) were transferred into a 384-well plate in duplicate. Plates were then seeded with 20,000 cell/mL suspension of test cell line (50 μL/well), unless otherwise specified. […] After incubation, cell viability was quantified by adding 1×CellTiter-Glo® reagent (Promega Corporation, Madison, WI) at 10 μL/well. After incubating for 30 min in the dark, luminescence was measured using a Synergy™ H1 Hybrid Multi-Mode Reader (BioTek Instruments Inc., Winooski, VT). Data was analyzed with Prism 7 software (GraphPad Prism Software).
# [2] = tested on: HCC827 cell line (mid c-Met expressing); test: In vitro cytotoxicity (CellTiter-Glo), HCC827; settings: 4 nights incubation; n = 2
# Description: as §1, §2
# [3] = tested on: H292 cell line (mid c-Met expressing); test: In vitro cytotoxicity (CellTiter-Glo), H292; settings: 4 nights incubation; n = 2; IC = cytotoxicity shown but curve not optimal for accurate EC50
# Description: as §1, §2
# [4] = tested on: EBC-1 cell line (high c-Met-expressing); test: In vitro cytotoxicity (CellTiter-Glo), EBC-1; settings: 4 nights incubation; n = 2
# Description: as §1, §2
compound,measurement,setting,value
CC[C@H](C)[C@@H]([C@@H](CC(=O)N1CCC[C@H]1[C@H](OC)[C@@H](C)C(=O)N[C@H](C)[C@@H](O)c1ccccc1)OC)N(C)C(=O)[C@@H](NC(=O)[C@@H](NC)C(C)C)C(C)C [MMAE] (H-[NMeV]V[Dil][Dolaproine]-X1),EC50,[1],0.13 nM
same,EC50,[2],0.36 nM
same,EC50,[3],0.11 nM
same,EC50,[4],0.16 nM
